In patent publication US9198896B2 (priority 2006, dated 2015):
“Also recorded” adds a separate entry of the source. Where two headings read alike, the source gives them in different places. Marks after values point to notes of the source that are not given here.

Assays:
[1] = Long-term (chronic) toxicity study, mice; details: multiple dose, observed up to 90 days after treatment
Text: Long-term (chronic) toxicity study: Mode of treatment and dilution by either water or normal saline were identical to acute toxicity study. Chronic toxicity study was made with four species of animals: mice, rat, rabbit and dog.
Mice. For experiment with these animals, 4 batches of mice were used per mode of treatment. Each batch contained 6 animals either male or female weighing 18-25 g. […] In all the cases, control group received water or normal saline in respective manner.
Total number of animals in each group including control and different modes of treatment: 6 (mice), 5 (rats) and 4 (rabbits). Each set of experiment was repeated 4 times for mice and rats and for rabbits 2 times respectively. […] In Table 3, αWeight of animals for mice and rats in gm and for rabbit in Kg.

[2] = for Blood cells, remarks: dog and bitch
Text: Hemoglobin was estimated by reacting the blood sample with Drabkin's reagent to convert it to cyanmethemoglobin and measuring the absorbance at 540 nm. Urea was estimated by reacting it with hot acidic diacetylmonoxime in the presence of semicarbarzide and measuring the rose-purple color at 525 nm. Glucose was estimated by glucose oxidase method in the presence of peroxidase and measuring the absorbance of the colored complex of hydroxybenzoate and 4-aminophenazone at 510 nm. Creatinine was measured by reacting it with alkaline picrate and measuring the absorbance of the red-colored complex at 520 nm. Alkaline phosphatase was assayed by its ability to convert phenyl phosphate to inorganic phosphate and phenol. The later reacts with 4-aminoantipyrine to form an orange-red-colored complex, which was measured at 510 nm. Aspartate transaminase was measured by reacting the reaction product oxaloacetate (from the substrate 1-aspartic acid) with 2,4-dinitrophenyl hydrazine. The hydrazone thus formed gives a characteristic brown color when placed in an alkaline medium and was measured at 505 nm. Alanine transaminase was assayed similarly by 2,4-dinitrophenylhydrazine-alkali color reaction; the substrate and products are 1-alanine and pyruvate respectively.
Long-term toxicity test with non-rodents (dog and bitch). Total of 6 animals (4 dogs and 2 bitches) were used for this experiment. The animals were 3-4 months old. Three different modes of treatment were used; two animals received the formulation orally, the other two by intravenous injection and the other two by subcutaneous injection. The total period of treatment was for 4 weeks (5 days per week).
Dogs. For biochemical analysis, blood samples from each individual animal were collected and processed similarly to that of rats. The samples were collected just before the treatment commenced, in mid-phase of the treatment and 7 days after completion of the treatment. The samples were analyzed for the activities of several enzymes and metabolite contents as per the methods described in the respective assay kit and are briefly mentioned before. Hemoglobin estimation and cell count were done with an uncoagulated sample.
However, subcutaneous injections appeared to be painful. The biochemical tests and some hematological studies were performed with blood of the animals, the results of which are presented in the Tables.

[3] = Biochemical tests of blood/sera of rats after long-term treatment; type: in vivo, rat; details: 1 week after long-term treatment
[4] = Histological studies with mice; type: in vivo; details: oral 0.5 gm/kg once a day for 10 weeks
Text: After end of the treatment, the mice were killed, and several organs were excised and processed for histological studies. Bone marrow cells were taken from the marrow cavity of the femur bone.
Histological studies with mice: Histological studies were done with several organs of mice, and the results are presented in FIG. 1.

[5] = Teratogenicity study; type: in vivo, mice; details: treatment (oral and intravenous) from conception for 3 weeks
Experimental: Teratogenicity: For this test, mating was performed between mice as mentioned above in the case of fertility studies. […] But, as soon as they conceived, as indicated by vaginal plug formation, the treatment (oral and intravenous) started and continued for 3 weeks in a similar fashion for chronic toxicity studies. […] These litters also grew up healthy with no signs of abnormality. Healthy litters were born again when mating was performed among these animals.

[6] = tested on: EAC cells; experiment: Increase in body weight of EAC cell-inoculated mice; type: in vivo; details: Table 10
Experimental: Increase in body weight: For this experiment, mice were weighed periodically during and after the therapy. The results are expressed as percentage increase in the body weight using the following relationship: percent increase equals
Ehrlich ascites carcinoma bearing mice were treated intraperitonially with different drug combinations in normal saline to observe their effect on body weight (table 10) and life span (table 11). Mice in the control group were similarly treated intraperitonially only with normal saline.
The day on which 10^5 EAC cells were inoculated into each mouse was considered as day 0. The treatment started from day 3. […] 6 animals received a particular mode of treatment. Control group received only normal saline. […] Each set of experiment was repeated 4 times.

[7] = mice, 1 day: oral 2 g, subcutaneous 1 g, intravenous 0.3 g/kg; observed up to 90 days
Text: Three modes of treatment were used: a) oral, through gastric cannula; b) subcutaneous and c) intravenous, through tail vein. […] For test with mice, the animals were divided in groups each containing 6 animals either male or female weighing 18-20 g. For rats, the animals were divided in groups each containing 5 animals either male or female weighing 80-100 g. The control group in each mode of treatment received either water or normal saline.
Acute toxicity study was done with two species of animals, mice and rat.
All the animals were observed up to 90 days.

[8] = both, rat, in vivo, 6 weeks
[9] = tested on: EAC cells; experiment: Increase in body weight of EAC cell-inoculated mice; type: in vivo
[10] = tested on: ascites sarcoma 180 cells; details: Együd and Szent-Györgyi, 1968; cited from earlier work

## CC(=O)C=O [methylglyoxal]
[1]
  death and toxic effect (physical and behavioral): No death and toxic effect
[2]; After treatment
  Blood cells, remarks: Mild hypochromia; also recorded: No abnormal cells
[2]; Mid-phase treatment
  Blood cells, remarks: Mild hypochromia; also recorded: No abnormal cells
[2]; dog, in vivo
  Basophils: 0%
[2]; dog, long-term treatment
  general physical conditions and behavioral pattern vs control: no abnormalities
[2]; dogs, during and after the treatment (90 days)
  death: no death occurred
[3]; Intravenous
  Creatine kinase: 0.36 ± 0.04 units/ml
  Creatine kinase-MB: 0.18 ± 0.01 units/ml
  Hb: 10.2 ± 0.8 gm/dl
  Serum Urea: 26.3 ± 2.1 mg/dL
  Serum alanine transaminase: 28 ± 1.6 units/ml
  Serum alkaline phosphatase: 41.6 ± 1.2 KA units
  Serum aspartate transaminase: 125 ± 5 units/ml
  Serum creatinine: 0.90 ± 0.02 mg/dL
  Serum glucose: 102 ± 10 mg/dL
[3]; Oral
  Creatine kinase: 0.37 ± 0.05 units/ml
  Creatine kinase-MB: 0.16 ± 0.03 units/ml
  Hb: 10.4 ± 0.3 gm/dl
  Serum Urea: 24.3 ± 1.9 mg/dL
  Serum alanine transaminase: 24 ± 2.5 units/ml
  Serum alkaline phosphatase: 39.3 ± 1.6 KA units
  Serum aspartate transaminase: 132 ± 3 units/ml
  Serum creatinine: 0.82 ± 0.03 mg/dL
  Serum glucose: 109 ± 6 mg/dL
[3]; Subcutaneous
  Hb: 10.35 ± 0.35 gm/dl
  Serum Urea: 23.5 ± 1.3 mg/dL
  Serum alanine transaminase: 28 ± 2.8 units/ml
  Serum alkaline phosphatase: 45.3 ± 1.8 KA units
  Serum aspartate transaminase: 141 ± 7 units/ml
  Serum creatinine: 0.85 ± 0.03 mg/dL
  Serum glucose: 122 ± 3 mg/dL
[4]
  histological examination of organs (liver, kidney, spleen, duodenum, bone marrow): none of the organs tested by histological examination had any adverse effect
[5]
  outcome of pregnancy (teratogenicity): gave birth to healthy litters
[6]; MG 30 mg/kg/day ip, Day 15
  Percent increase in body weight: 15.8 ± 1.3%
[6]; MG 30 mg/kg/day ip, Day 25
  Percent increase in body weight: 30.0 ± 2.9%
[6]; MG 30 mg/kg/day ip, Day 35, 2 animals survived out of 6
  Percent increase in body weight: 38.8 ± 3.0^b %
[6]; MG 100 mg/kg body weight/day ip, Day 15
  Percent increase in body weight: 8.0 ± 0.7%
[6]; MG 100 mg/kg body weight/day ip, Day 20
  Percent increase in body weight: 10.0 ± 1.2%
[6]; MG 100 mg/kg body weight/day ip, Day 25
  Percent increase in body weight: 11.0 ± 1.0%
[7]
  death: No death
[8]
  healthy litters per female, on an average: 5
[9]; Table 8, MG 30 mg/kg/day, Day 15
  Percent increase in body weight: 15.8 ± 1.3%
[9]; Table 8, MG 30 mg/kg/day, Day 20
  Percent increase in body weight: 19.0 ± 1.6%
[9]; Table 8, MG 30 mg/kg/day, Day 25
  Percent increase in body weight: 30.0 ± 2.9%
[9]; Table 8, MG 30 mg/kg/day, Day 30
  Percent increase in body weight: 32.9 ± 3.0%
[9]; Table 8, MG 30 mg/kg/day, Day 35, 2 animals survived out of 6
  Percent increase in body weight: 38.8 ± 3.0^b %
[9]; Table 8, MG 100 mg/kg/day, Day 15
  Percent increase in body weight: 8.0 ± 0.7%
[9]; Table 8, MG 100 mg/kg/day, Day 20
  Percent increase in body weight: 10.0 ± 1.2%
[9]; Table 8, MG 100 mg/kg/day, Day 25
  Percent increase in body weight: 11.0 ± 1.0%
[9]; Table 8, MG 100 mg/kg/day, Day 30
  Percent increase in body weight: 11.2 ± 0.9%
[9]; Table 8, MG 100 mg/kg/day, Day 35
  Percent increase in body weight: 11.2 ± 1.1%
[9]; Table 10, MG 30 mg/kg/day ip, Day 20
  Percent increase in body weight: 19.0 ± 1.6%
[9]; Table 10, MG 30 mg/kg/day ip, Day 30
  Percent increase in body weight: 32.9 ± 3.0%
[9]; Table 10, MG 100 mg/kg body weight/day ip, Day 30
  Percent increase in body weight: 11.2 ± 0.9%
[9]; Table 10, MG 100 mg/kg body weight/day ip, Day 35
  Percent increase in body weight: 11.2 ± 1.1%
[10]
  tumor development: no tumor developed
